In this assay the target is DNA topoisomerase 1 (Bos taurus). Briefly: Inhibition of topoisomerase I activity was determined in vitro by using the cleavable complex assay(calf thymus).

We go through three compounds from BindingDB's records for doi:10.1021/jm00003a001 (Glaxo Research Institute, 1995).

In general, IC50 refers to the concentration needed to halve the response being measured. High values mean lower potency, low ones higher potency. With `CC[C@@]1(O)C(=O)OCc2c1cc1n(c2=O)Cc2c-1nc1cc3c(cc1c2CN1CCN(C)CC1)OCCO3` [8-ethyl-8-hydroxy-15-(4-methylhexahydro-1-pyrazinylmethyl)-(8S)-2,3,8,9,12,14-hexahydro-11H-[1,4]dioxino[2,3-g]pyrano[3',4':6,7]indolizino[1,2-b]quinoline-9,12-dione with trifluoroaceticacid], the 50% inhibitory concentration (IC50) was 416 nM. Compound `CC[C@@]1(O)C(=O)OCc2c1cc1n(c2=O)Cc2c-1nc1cc3c(cc1c2CCl)OCO3` [14-chloromethyl-7-ethyl-7-hydroxy-(7S)-7,8,11,13-tetrahydro-10H-[1,3]dioxolo[4,5-g]pyrano[3',4':6,7]indolizino[1,2-b]quinoline-8,11-dione] gave an IC50 of 15 nM.

`CC[C@@]1(O)C(=O)OCc2c1cc1n(c2=O)Cc2c-1nc1cc3c(cc1c2CCl)OCCO3` [15-chloromethyl-8-ethyl-8-hydroxy-(8S)-2,3,8,9,12,14-hexahydro-11H-[1,4]dioxino[2,3-g]pyrano[3',4':6,7]indolizino[1,2-b]quinoline-9,12-dione] came in with an IC50 of 11 nM.
